According to publication PMC11681865, “Oligomerization of protein arginine methyltransferase 1 and its functional impact on substrate arginine methylation” (The Journal of Biological Chemistry, 2024):
“Also recorded” adds a separate entry of the source. Each block holds one compound with its values, some of them ahead of it.

Key:
[1] = target: T1, PRMT1-WT (Homo sapiens, UniProt Q99873); experiment: Radiometric P81 filter-binding assay, PRMT1-WT concentration dependence; format: biochemical; conditions: 50 μM peptide, 2 μM [3H]-SAM and 48 μM SAM, 30 min, room temperature, pH 8.0
T1 construct: His-MBP (N, cleaved yes); made in house; host or cells: Escherichia coli BL21 (DE3) RIPL
Excerpt: We used the phosphocellulose P81 filter paper–binding assay to measure the catalytic activity of PRMT1 at different concentrations on individual peptides. Each reaction mixture was composed of PRMT1-WT at varied concentrations, at fixed concentrations of SAM and peptide. The reaction mixture was quenched with isopropanol, transferred to the P81 filter paper, and washed with sodium bicarbonate buffer (pH 9). […] The measured count-per-minute (CPM) values correlated directly with the amounts of methylated peptide products. In a typical enzymatic catalysis, the product should be formed linearly as a function of enzyme concentration.
Various concentrations of PRMT1-WT were incubated with radioactive 2 μM [3H]-SAM and 48 μM SAM and 50 μM of indicated peptides for 30 min. The reaction was quenched with 100% isopropanol.
The reaction buffer consisted of 50 mM Hepes pH 8.0, 10 mM NaCl, 0.5 mM EDTA, and 0.5 mM DTT. The reaction was incubated at room temperature for 30 min after being initiated with ^3H-SAM SAM. An equal amount of 100% isopropanol to the total reaction volume was used to quench the reaction. The reaction liquid was transferred onto the phosphocellulose P81 filter paper (1.1 cm × 2 cm, Protein Chemistry & Metabolism Unit at St Vincent's Institute of Medical Research). The P81 filter papers containing the samples were left at room temperature for 30 min to airdry. […]

[2] = target: T2, PRMT1 (Homo sapiens, UniProt Q99873); experiment: Stopped-flow fluorescence dissociation of H4FL from PRMT1; format: binding; conditions: for koff: 1:25 dilution, pH 8.0, ex 498 / em 524, at least three shots averaged, single exponential
T2 construct: human PRMT1 protein (amino acid residue 11–353); His6; made in house
Excerpt: We next utilized the stopped-flow technique to measure the dissociation rates of peptide substrate from PRMT1 at different PRMT1 concentrations. We used a rapid dilution experiment with stopped flow fluorescence to measure the dissociation rate of H4 peptide from PRMT1. […] We reasoned that the changes of fluorescence intensity can be used to measure dissociation rate of H4 substrate. In the experiment, the H4FL was premixed with PRMT1 and loaded into the sample chamber of the stopped flow equipment. The mixture was rapidly mixed with an access buffer which initiated the dissociation of H4FL from PRMT1 on the millisecond scale. […] The averaged data curves were fitted to the single exponential equation to yield dissociation rate constant koff. The koff was 42.27 s^−1 at 0.5 μM of PRMT1, the koff was 22.29 s^−1at 1.5 μM of PRMT1, and the koff was 17.65 s^−1 at 5 μM of PRMT1 (Fig. 9D).
Figure 9 Oligomerization helps PRMT1 retain its substrate. The experiment was carried out by the SX20 stopped-flow spectrometers with (A) 0.5 μM, (B) 1.5 μM, and (C) 5 μM of PRMT1. The PRMT1 was premixed with 0.8 μM H4FL peptide. The mixture was diluted with the reaction buffer for a 1:25 dilution when the reaction was run. D, data summary of koff. TEXT PRINTED IN THE PICTURE: (D) no label printed: koff: 42.27 s^-1 (Concentration of PRMT1: 0.5 μM); koff: 22.29 s^-1 (Concentration of PRMT1: 1.5 μM); koff: 17.65 s^-1 (Concentration of PRMT1: 5 μM)
The trapping experiment to measure the dissociation rate of PRMT1 was carried out using the SX20 stopped-flow spectrometers (Applied Photophysics). The setting for excitation was 498 and emission was 524. A constant concentration of 0.8 μM of H4FL peptide (Peptide Sequence: Ac-[…]pr(FL)[…], in which FL stands for fluorescein) was pre-mix with 0.5 μM, 1.5 μM, and 5.0 μM of PRMT1. The mixture was loaded on the 100 μl drive syringe. Another 2.5 ml drive syringe was loaded with reaction buffer (50 mM Hepes pH 8.0, 10 mM NaCl, 0.5 mM EDTA, and 0.5 mM DTT) to create the 1:25 dilution factor. At least three shots were averaged for each reaction and fitted to the single exponential function. F is the fluorescence intensity, t is time, A is the amplitude of fluorescence, k is the dissociation rate constant, and C is the final value of fluorescence.(2) F=Aexp(−kt)+C

[3] = target: T2, PRMT1; experiment: Dynamic light scattering of PRMT1 oligomers; format: physicochemical; conditions: pH 8, 25 °C; for disruption of PRMT1 oligomers by denaturant: 6 M guanidine hydrochloride or 5 M guanidine thiocyanate
Excerpt: Dynamic light scattering (DLS) uses a laser to measure the particle size distribution ([26]). The DLS can give information regarding the heterogeneity of protein in a sample ([27]). In the past, DLS was used to study microbial and viral structure ([28]). Nowadays, DLS is a popular method for studying nanoparticles, liposomes, and exosomes ([29], [30], [31], [32]). Researchers have also used DLS to study the protein folding of bovine serum albumin ([33]). Therefore, we envisage that the DLS can be utilized to analyze the size changes of PRMT1 oligomeric compositions in an aqueous solution. We expect to see an increase in size with increasing protein concentrations. The prepared PRMT1 protein at varied concentrations was allowed to incubate in the aqueous buffer for equilibrium on ice for 10 min. The protein solution was filtered with 0.2-micron filter to remove any big interfering particles. The protein size was analyzed using a Malvern Zetasizer instrument. We took an average of three runs with about 25 scans each time to evaluate the data. […] Guanidine hydrochloride is a popular protein denaturant ([34]). […] As a negative control, we incubated PRMT1 in the presence of 6 M guanidine hydrochloride to disrupt oligomer formation. […] A literature reported that guanidine thiocyanate is a stronger denaturant than guanidine hydrochloride ([35]).
Figure 2 Oligomerization of PRMT1 detection by dynamic light scattering. Various concentrations of PRMT1 were incubated on ice for 10 min, then filtered by 0.2-micron syringe filter and collected data from the DLS. The top line with black circle indicates PRMT1 without denaturant. The open triangle and hexagon lines indicated PRMT1 oligomeric structure disrupted by 6 M guanidine hydrochloride and 5 M guanidine thiocyanate, respectively.
Indicated concentrations of PRMT1 were incubated for 10 min on ice with buffer (50 mM Hepes pH 8, 10 mM NaCl, 0.5 mM EDTA, 0.5 mM DTT) and filtered through the 0.22 μm syringe filter. For the experiment to disrupt the oligomer formation, 6 M of guanidine hydrochloride or 5 M of guanidine thiocyanate was added to the reaction. The samples were injected into the 1 ml disposable cuvette and measured by Zetasizer Nano ZS (Malvern Instruments) at 25 °C. Three measurements of 25 scans each were collected to average. The data was analyzed by the Malvern Zetasizer software v7.10.

[4] = target: Human PRMT1 (11-353), His-MBP tag removed (human)
[5] = target: T1, PRMT1-WT; experiment: Steady-state kinetics, radiometric filter-binding assay, PRMT1-WT; format: biochemical
Excerpt: To gain further insights into the effect of oligomerization on the PRMT1 activity, we measured the steady-state kinetic parameters of different peptide substrates under PRMT1 catalysis using the radiometric assay. […] A constant concentration of PRMT1-WT was mixed with various concentrations of peptide and a constant concentration of radioactive SAM. After quenching the reaction, the reaction mixture was loaded onto the P81 filter paper that was washed, air-dried, and soaked in scintillation cocktail for scintillation counting. The rates of methylation as a function of the peptide concentration were plotted in Figure 8A and fit with the Hill equation to obtain catalytic parameters kcat and K0.5 (Fig. 8B).
Figure 8 Steady state kinetic characterization of PRMT1 catalysis in oligomeric states. Radioactive kinetic parameters were measured using filter-binding assay. […] The reaction time was 15 min at 30 °C and quenched with 100% isopropanol. For the reaction with PRMT1-E153Q, 0.05 μM PRMT1-E153Q was incubated on ice with PRMT1 for 20 min equilibration before adding SAM and peptide. A, kinetic parameters of oligomeric states in graphical form. B, representation of the kinetic parameters in kcat, K0.5, and kcat/K0.5.
Each reaction sample was consisted of 0.05 μM PRMT1, 15 μM ^14C-SAM, and various concentrations of peptide. […]

T1 sequence (Q99873 11-353 isoform Q99873-3): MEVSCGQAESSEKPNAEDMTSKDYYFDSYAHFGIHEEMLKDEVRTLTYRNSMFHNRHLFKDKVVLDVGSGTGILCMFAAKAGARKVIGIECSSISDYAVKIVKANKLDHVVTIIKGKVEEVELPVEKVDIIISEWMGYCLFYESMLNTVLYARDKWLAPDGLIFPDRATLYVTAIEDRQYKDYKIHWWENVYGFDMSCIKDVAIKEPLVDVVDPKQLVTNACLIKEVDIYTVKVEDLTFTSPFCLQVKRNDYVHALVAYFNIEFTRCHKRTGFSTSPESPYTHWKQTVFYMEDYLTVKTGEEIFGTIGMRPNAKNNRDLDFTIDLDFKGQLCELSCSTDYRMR
T2 sequence (Q99873 11-353 isoform Q99873-3): as above

Compound: Ac-SGRmeGKGGKGLGKGGAKRHRK [Ac-H4(1–20)R3me]
PRMT1 enzymatic activity (CPM) vs PRMT1 concentration [1]: increase as higher-order oligomeric structures were formed

koff ([2]; 0.5 μM PRMT1, 0.8 μM H4FL): 42.27 s⁻¹
koff ([2]; 1.5 μM PRMT1, 0.8 μM H4FL): 22.29 s⁻¹
koff ([2]; 5 μM PRMT1, 0.8 μM H4FL): 17.65 s⁻¹
Compound: Ac-SGRGKGGKGDpr(FL)GKGGAKRHRK [H4FL, fluorescently labeled H4 peptide]
koff vs PRMT1 concentration / oligomeric state ([2]; 0.5, 1.5 and 5 μM PRMT1): the koff decreased as PRMT1 concentration increased; also recorded: smaller at higher oligomeric states

highest Z-average of PRMT1 in presence of denaturant ([3]; 6 M guanidine hydrochloride, average of three runs of 25 scans): 8.43 nm
Compound: Cl.N=C(N)N [guanidine hydrochloride]
disruption of PRMT1 oligomers by denaturant [3]: substantially smaller than those values without guanidine hydrochloride

dimethylated R4me2 (MALDI-MS, percent relative to R4 peptide), 0.5 μM PRMT1-WT with 0 to 2 μM PRMT1-E153Q [4]: 5.85%
monomethylated product R4me1 (MALDI-MS, percent relative to R4 peptide), 0.5 μM PRMT1-WT with 0 to 2 μM PRMT1-E153Q [4]: 20.2%
Compound: PRMT1-E153Q, catalytically inactive mutant (enzyme)

Z-average of PRMT1 in presence of denaturant ([3]; 5 M guanidine thiocyanate, average of three runs of 25 scans): 1.27 nm
Compound: N#CS.N=C(N)N [guanidine thiocyanate]
disruption of PRMT1 oligomers by denaturant [3]: better at denaturing PRMT1 oligomers than guanine hydrochloride

Compound: Ac-SGRGKGGKGLGKGGAK [Ac-H4(1–16)]
K0.5 / binding comparison of Ac-H4(1–16) and longer H4 peptide [5]: greater than Ac-H4(1–22); also recorded: weaker PRMT1 binding
kcat, fold lower than Ac-H4(1–22) ([5]; Ac-H4(1–16) vs Ac-H4(1–22)): 1.3 fold
